# Measurements taken from the METLIN SMRT retention time set (Domingo-Almenara et al. 2019).
# Experiment: gradient 5% acetonitrile 3 min, to 50% in 2 min, to 85% in 15 min, held 3 min, 100 µL/min
# Conditions: column: Zorbax Extend-C18 2.1 x 50 mm; eluents: water / acetonitrile, 0.1% formic acid
# Procedure, shortened: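 Mixtures of ~100 pure standards were chromatographed on a Zorbax Extend-C18 column (2.1 × 50 mm, 1.8 μm) at 100 μL/min using water and acetonitrile, each with 0.1% formic acid. Detection used a quadrupole time-of-flight mass spectrometer in positive and negative ionization mode, and data collection spanned 3 months. Retention time was obtained from adduct peaks picked computationally and each checked manually.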
row,RP-LC retention time,SMILES
1,883 s,Cc1cccc(CNC(=O)Cn2c(C)cc(-c3nnc(C4CCC4)o3)c2C)c1
2,559 s,Cc1noc(C)c1CC(=O)NCc1nnc2n1CCCC2
3,844 s,CCOC(=O)Cc1csc(NC(=O)CCS(=O)(=O)c2ccccc2)n1
4,899 s,CCc1cccc(NC(=O)Cn2nc3cc(C)nc(-c4ccccc4)n3c2=O)c1
5,733 s,O=C(CCc1csc(NC(=O)c2cccs2)n1)Nc1ccc2c(c1)OCCO2
6,685 s,CCCNC(=O)N(C1CCOCC1)C1CCN(C(=O)Nc2c(F)cccc2F)CC1
7,702 s,CCOC(=O)c1csc(NC(=O)c2ccn(CC)n2)n1
8,854 s,O=C(NCCn1nc(-c2ccc(Cl)cc2)ccc1=O)c1csc(-c2ccccc2)n1
9,753 s,CC1(C(=O)NC2CCCC2)Cn2cnc(C(=O)NCc3cccc(F)c3)c2C(=O)N1C1CC1 (configuration not stated)
10,609 s,CCOC(=O)c1ncn(Cc2ccc3c(c2)OCO3)c1N
11,1060 s,COc1ccc(Cn2c(=O)c3sccc3n(Cc3nc(-c4ccc(C)cc4)no3)c2=O)cc1
12,754 s,COCCCN(C(=O)c1ccc(F)cc1)C(C)C(=O)c1c(C)[nH]c(C(=O)OC)c1C (configuration not stated)
13,874 s,COc1ccc(NC(=O)N2CCCC(C)(C(=O)NCc3ccc(C)cc3)C2)cc1 (configuration not stated)
14,616 s,COc1ccc(CNC(=O)Cc2cn(C)c3ncccc23)cc1OC
15,692 s,O=C(O)c1cc(=O)c2cc(Cl)ccc2[nH]1
16,905 s,N#CCc1ccc(NC(=O)C2CCCN(S(=O)(=O)Cc3ccccc3Cl)C2)cc1 (configuration not stated)
17,1080 s,CCc1ccc(S(=O)(=O)c2cnc(N3CCN(c4ccccc4OC)CC3)nc2N)cc1
18,685 s,CC(=O)Nc1ccc(C(=O)N2CC3CN(S(=O)(=O)c4cccc(F)c4)CC(C2)O3)cc1

row,RP-LC retention time,SMILES
1,826 s,c1ccc(Nc2c(-c3ccccc3)nc3cnccn23)cc1
2,608 s,CC(C)c1nnc(-c2ccc(S(=O)(=O)N3CCN(C(C)C)CC3)o2)o1
3,570 s,CCN(CC)c1nc(C(=O)N2CCN(c3ccccn3)CC2)nc2nc(C)cc(C)c12
4,576 s,CCn1ncc(N2CCC(NC(=O)C(C)(C)C)CC2)cc1=O
5,721 s,CCc1ccc(NS(=O)(=O)c2cc(-c3[nH]ncc3C(=O)N3CCOCC3)oc2C)cc1
6,698 s,OCCNc1nc(NCCc2cccs2)nc2c1cnn2-c1ccc(F)cc1
7,964 s,CCn1nccc1C(=O)Nc1c(-c2cccc(F)c2)nc2sc(N3CCCCC3)nn12
8,682 s,Cc1nc(C)c(C(=O)NCC23CCCC=C2N(C)C(=O)CC3)s1 (configuration not stated)
9,632 s,CCn1c(=O)c(N2CCC(C(=O)NCCCN3CCCCC3C)CC2)nc2cccnc21 (configuration not stated)
10,936 s,CCN(CC)S(=O)(=O)c1ccc(-c2c(C)noc2C)cc1
11,823 s,COc1ccc2nc(C(=O)NCc3cc(F)ccc3F)cn2n1
12,722 s,COCCC(=O)NC1CCN(C2=NS(=O)(=O)C(c3ccc(C)c(C)c3)=C2C)CC1
13,841 s,CC(=O)c1ccc(N(C(C)=O)S(=O)(=O)c2ccc(Cl)cc2)cc1
14,621 s,O=C(CSc1nccn1Cc1ccc2c(c1)OCO2)Nc1ccccc1F
15,934 s,Cc1ccnn1-c1ccc(SCC(=O)Nc2cc(F)ccc2F)nn1
16,845 s,Cc1ccc(-c2noc(CSc3nc4cc5c(cc4c(=O)n3Cc3ccncc3)OCO5)n2)cc1
17,808 s,CCOC(=O)c1c(C)[nH]c(C(=O)N2CCCC(C(=O)NCCc3c[nH]c4ccccc34)C2)c1C (configuration not stated)
18,590 s,CCc1noc([C@@H]2CC(F)(F)CN2C(=O)CCn2ccnc2)n1

row,SMILES,RP-LC retention time
1,Cc1cc(C(N)=O)c(C)n1Cc1ccc(F)cc1,752 s
